Results: patent US20240247031A1, “COMPOSITION FOR TREATING CANCER CONTAINING TELOMERASE-TARGETING GNRH ANTAGONIST-DERIVED PEPTIDE HS1002” (Research & Business Foundation Sungkyunkwan University, priority 2023, published 2024)

Key:
[1] = test system: HEK293-Vector cells; test: Intracellular calcium flux assay, mock-transfected cells; assay type: cell-based, human; conditions: 1 and 10 nM
Method: (§1) Human embryonic kidney cell line (HEK293), and mouse cancer cell lines (MC38, 4T1) were purchased from the American Type Culture Collection (Manassas, VA, USA). All cell lines were grown in Dulbecco's Modified Essential Medium (DMEM) or Roswell Park Memorial Institute (RPMI) 1640 supplemented with 10% FBS, 100 U/mL penicillin, and 100 μg/mL streptomycin (WelGENE, Daegu, South Korea) in a humidified atmosphere of 5% CO2 at 37° C. To obtain GnRHR-overexpressing HEK293 (HEK293-GnRHR) cells, transfection of the pCMV-AC-GFP-GnRHR vector (HEK293-GnRHR) was performed using Lipofectamine™ 3000 according to the manufacturer's instructions (Cat. 100022052, Thermo Fisher Scientific, Waltham, MA, USA). Colonies of geneticin-resistant cells were selected by adding G418 (800 μg/mL, Sigma) to the culture medium. The HEK293-pCMV-AC-GFP vector (HEK293-Vector) cells were used as a mock-transfection group.
(§2) Intracellular calcium mobilization was measured using the Calcium Flux Assay Kit (Cat. ab233472, abcam) in response to different concentrations of each peptide. The percentage increase was calculated relative to basal fluorescence intensity. The experiment was performed in triplicate.

[2] = test system: c-Myc, AKT, ERK1/2 in LNCaP tumor xenografts; test: Western blot of c-Myc and signaling proteins in LNCaP-xenografted tumors (FIG. 14); assay type: in vivo, mouse; conditions: LNCaP xenograft; HS1002 1 mg/kg/day, LA 0.1 mg/kg/day s.c.
Method: (§3) The cells and tumor tissues were homogenized using the PRO-PREP™ extraction solution (iNtRON Biotechnology, Seongnam, Korea). After incubation, the homogenate was centrifuged at 16,000×g for 20 min at 4° C., and the supernatant was collected for western blot analysis. Subsequently, an equivalent quantity of protein was separated using sodium dodecyl sulfate polyacrylamide gels and transferred onto a polyvinylidene difluoride (PVDF) membrane. The PVDF membranes were incubated with the primary antibodies overnight at 4° C., washed with tris-buffered saline, and then incubated with HRP-conjugated anti-mouse or anti-rabbit antibodies. The bands were visualized using a ChemiDoc imaging system (Bio-Rad, Hercules, CA, USA). The band intensities were determined using an Image J software.
All mice were purchased from Central Lab Animal Inc. ([…]). They were raised in a 12 h environmental light/dark cycle with controlled temperature (22±2° C.) conditions. The experimental protocol was approved by the Sungkyunkwan University Institutional Animal Care and Use Committee (SKKUIACUC2021-06-27-1, SKKUIACUC2023-01-07-1). For the establishment of tumors, LNCaP (1×10^7), MC38 (2×10^5), and 4T1 (1×10^6) suspended in serum-free media containing 50% Matrigel was subcutaneously administered in the right flank of mice, respectively. The tumor volumes (V) were calculated using a caliper and the standard equation: V (mm^3)=0.52 (ab^2) (a=length, b=width). Once the tumor reached 100-200 mm^3, the mice were randomly divided into different groups and subcutaneously injected with a vehicle or each peptide every day.
To investigate the anticancer effect of HS1002, the present inventors observed the volume of cancer cells after transplanting the cancer cells into experimental animals. Specifically, mice (4-week-old male BALB/c nude mice; Central Lab. Animal Inc., Seoul, Korea) were prepared, and tumor cells (1×10^7 LNCaP cells) suspended in 1 mL of a serum-free medium containing 50% Matrigel were percutaneously injected into the upper flank of each nude mouse. When the tumor cell volume reached about 200 mm^3, the mice were randomly assigned to a vehicle control group, a leuprolide acetate-treated group, and test groups (GV1001-treated group and HS1002-treated group), respectively. Leuprolide acetate (0.1 mg/kg/day) and GV1001 and HS1002 (1 mg/kg/day) were injected subcutaneously for 13 days.

[3] = test system: AKT, ERK1/2, and mTOR pathways; test: Western blot of hTERT-regulating signaling proteins in LNCaP (FIG. 13); assay type: cell-based, human; conditions: LNCaP cells
Method: as §3
Furthermore, a western blot analysis assessed the expression levels of signaling pathway proteins that regulate hTERT in LNCaP cells treated with HS1002. […] In addition, the expression of AKT, ERK1/2, and mTOR was unchanged in both the control and HS1002 groups (FIG. 13).

[4] = molecular target: T1, HEK293-GnRHR cells (Homo sapiens, UniProt P30968); test: Intracellular calcium flux assay; assay type: cell-based
T1 construct: GFP; expressed in transfected cells
T1 sequence (P30968 1-328): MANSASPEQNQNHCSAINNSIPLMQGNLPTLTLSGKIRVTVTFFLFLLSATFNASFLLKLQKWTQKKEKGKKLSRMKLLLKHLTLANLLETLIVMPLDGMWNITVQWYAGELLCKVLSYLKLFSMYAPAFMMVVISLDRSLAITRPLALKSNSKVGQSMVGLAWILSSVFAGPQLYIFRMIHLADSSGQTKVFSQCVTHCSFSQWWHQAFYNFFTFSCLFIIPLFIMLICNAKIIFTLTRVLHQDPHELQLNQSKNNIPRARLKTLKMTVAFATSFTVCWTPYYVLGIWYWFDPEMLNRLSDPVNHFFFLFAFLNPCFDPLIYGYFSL
Method: as §1, §2

[5] = test system: LNCaP; test: cells; assay type: cell-based, human; conditions: human, 48 h
Method: (§4) To evaluate anticancer activities of the produced peptides on various types of cancer cells, MTT analysis was performed. Human prostate cancer cell lines (LNCaP, PC3, and DU145), human breast cancer cell lines (MDA-MB-231 and MCF-7), lung cancer cell line (A549), and ovarian cancer cell line (SKOV3) were cultured in RPMI media supplemented with 1% penicillin/streptomycin and 1% fetal bovine serum (all from Life Technologies, Grand Island, NY). The cells were seeded in 96-well plates containing 100 μL of growth media for 24 h. The media were removed, and then 100 μL of the peptide (solvent DPBS) at each concentration was added to each well and incubated at 37° C. for 48 h. After incubation for 48 h, 100 μL of MTT reagent was added to each well. The cells were incubated at 37° C. for 4 h, and then the supernatant was removed. Formazan crystals were dissolved in 100 μL of DMSO with gentle stirring at 37° C. for 10 min. The absorbance per well was measured at 540 nm using a VERSA max microplate reader (Molecular Devices Corp.).

[6] = test system: MCF-7; test: cells; assay type: cell-based, human; conditions: human, 48 h
Method: as §4

SMILES: CCNC(=O)[C@@H]1CCCN1C(=O)[C@@H](NC(=O)[C@H](Cc1ccccc1)NC(=O)[C@H](CCCNC(=N)N)NC(=O)[C@H](CC(C)C)NC(=O)[C@H](CCCNC(=N)N)NC(=O)[C@H](Cc1ccc(O)cc1)NC(=O)[C@H](CO)NC(=O)[C@H](Cc1c[nH]c2ccccc12)NC(=O)[C@H](Cc1c[nH]cn1)NC(=O)[C@@H]1CCC(=O)N1)[C@@H](C)CC [HS1002]
- calcium flux [1]: increased calcium flux
- expression of c-Myc in tumor tissue [2]: significantly downregulated
- expression of p-AKT in tumor tissue [2]: significantly downregulated
- expression of p-ERK1/2 in tumor tissue [2]: significantly downregulated
- expression of p-AKT [3]: significantly downregulated
- expression of p-ERK1/2 [3]: significantly downregulated
- expression of p-mTOR [3]: significantly downregulated
- expression of AKT, ERK1/2, and mTOR ([3]; total proteins): unchanged
- calcium flux ([4]; 100 nM): increased calcium flux in HEK293-GnRHR cells
- calcium flux ([4]; 1 and 10 nM): increased calcium flux
- Cytotoxicity (IC50) LNCaP [5]: 6.83 ± 0.72 µg/mL
- Cytotoxicity (IC50) MCF-7 [6]: 53.31 ± 1.79 µg/mL
